Measurements: article PMC12735921, “Evaluation of Antiproliferative Activity and Molecular Modeling Studies of Some Novel Benzimidazolone-Bridged Hybrid Compounds” (Pharmaceuticals, 2025)
Several values for one entry are separate records, joined by “and”; a condition that tells them apart may be missing. Equal values may be shown once.

Columns and labels:
Assay type in all cases: cell-based, human
MCF-7 cells [1] = assay: Intracellular GSH/GSSG ratio, MCF-7; settings: MCF-7, IC50 concentration of compound, 48 h; H2O2 positive control; mean ± SD, n = 3
Experimental: (§1) Intracellular reduced (GSH) and oxidized (GSSG) glutathione levels were measured using the GSH/GSSG Ratio Detection Assay Kit (Cayman Chemical, Ann Arbor, MI, USA, Cat. No: 703002) according to the manufacturer’s protocol. […] After treatment, cells were washed with cold PBS and lysed with MES buffer provided in the kit.
(§2) To prevent oxidation of GSH to GSSG during processing, samples were deproteinized using the supplied metaphosphoric acid solution and neutralized accordingly. Total glutathione and GSSG levels were measured separately by adding the appropriate buffers and reagents to the wells of a 96-well plate, followed by the addition of DTNB recycling reagent and glutathione reductase. Absorbance was read at 405 nm using a microplate reader (BMG Labtech, Germany). The amount of GSH was calculated by subtracting 2 × GSSG from the total glutathione, and the GSH/GSSG ratio was used to assess intracellular redox status.

HeLa cells [2] = assay: Intracellular GSH/GSSG ratio, HeLa; settings: IC50 concentration of compound, 48 h, H2O2 positive control, mean ± SD, n = 3
Experimental: as §1, §2

MCF-7 cells [3] = assay: Total oxidative status (TOS), MCF-7; settings: MCF-7, IC50 concentration of compound, 48 h; H2O2 250 µM positive control; mean ± SD, n = 3
Experimental: (§3) TOS were evaluated using a commercially available kit (Rel Assay Diagnostics®, Gaziantep, Turkey) according to the manufacturer’s instructions. […] The TOS assay quantifies oxidizing agents based on their ability to convert an iron (II) ion chelator complex to iron (III) ions. The results were calibrated against hydrogen peroxide (H2O2, 250 µM) as a positive control for 48 h and expressed as µmol H2O2 equivalents per liter. The analysis was performed in three independent biological replicates (n = 3).

HeLa cells [4] = assay: MTT cell viability assay, HeLa
How it was run: (§4)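 Cells exposed to compounds at 0.5–200 µM for 48 h in DMEM with 10% FBS at 37 °C, 5% CO2; formazan dissolved in DMSO and read at 570 nm. Cytotoxicity relative to untreated control; IC50 from four-parameter logistic fit, mean of three independent measurements, triplicate samples.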

HeLa cells [5] = assay: LDH leakage assay, HeLa; settings: IC50 concentration of compound, 48 h, H2O2 positive control, mean ± SD, n = 3
Experimental: (§5) One hundred microliters of culture medium was transferred to a new 96-well plate. One hundred microliters of LDH reaction solution was added to each well, and absorbance was measured at 490 nm using an ELISA plate reader (BMG Labtech, Ortenberg, Germany) after 30 min.

HeLa cells [6] = assay: Total oxidative status (TOS), HeLa; settings: IC50 concentration of compound, 48 h, H2O2 250 µM positive control, mean ± SD, n = 3
Experimental: as §3

MCF-7 cells [7] = assay: Cell cycle analysis (PI staining, flow cytometry), MCF-7; settings: MCF-7, IC50 concentration, 48 h, mean ± SEM, n = 3
Experimental: Cell cycle distribution was assessed by propidium iodide (PI) staining and flow cytometry. HeLa, MCF-7, and A549 cells were seeded in 6-well plates at a density of 1 × 10^5 cells per well and allowed to attach overnight. […] Following exposure, both adherent and floating cells were collected, washed twice with cold phosphate-buffered saline (PBS, pH 7.4), and fixed overnight in 70% cold ethanol at 4 °C. After fixation, the cells were centrifuged and resuspended in 500 µL of PI/RNase staining solution containing 50 µg/mL PI and 100 µg/mL RNase A (Sigma-Aldrich®, St. Louis, MO, USA), followed by incubation in the dark for 30 min at 37 °C. The stained samples were analyzed using a Muse™ Cell Analyzer (Merck, Millipore, Germany) equipped with a 488 nm excitation laser and a 617 nm emission filter. A minimum of 10,000 events per sample were acquired after exclusion of debris and doublets via FSC-A vs. FSC-H gating. The DNA content histograms were generated automatically, and cell populations were expressed as percentages of G0/G1, S, and G2/M phases using the Muse™ Cell Cycle Analysis Software 1.5.0.0. All assays were conducted in triplicate biological repeats (n = 3), and results were reported as mean ± SEM.

A549 cells = assay: MTT cell viability assay, A549
How it was run: as §4

MCF-7 cells [8] = assay: MTT cell viability assay, MCF-7
How it was run: as §4

MCF-7 cells [9] = assay: LDH leakage assay, MCF-7; settings: MCF-7, IC50 concentration of compound, 48 h; H2O2 positive control; mean ± SD, n = 3
Experimental: as §5

IC50 (HeLa cells [4]; Homo sapiens, HeLa, MTT, 48 h, mean ± SD, n = 3): 31.2 ± 1.8 µM | IC50 (A549 cells; Homo sapiens, A549, MTT, 48 h, mean ± SD, n = 3): 30.6 ± 1.76 µM | IC50 (MCF-7 cells [8]; Homo sapiens, MCF7, MTT, 48 h, mean ± SD, n = 3): 28.3 ± 1.63 µM
SMILES: O=C(O)Cn1c(=O)n(CC(=O)O)c2cc(Cl)c(Cl)cc21 [Compound 6, 2,2′-(5,6-Dichloro-2-oxo-1H-benzo[d]imidazole-1,3(2H)-diyl)diacetic Acid]
GSH/GSSG (MCF-7 cells [1]): 12.1 ± 1.2 nmol/mg Protein and 12.1 ± 1.2 ^a,b nmol/mg Protein | GSH/GSSG (HeLa cells [2]): 10.6 ± 1.1 | TOS (MCF-7 cells [3]): 6.9 ± 0.5 µmol H2O2 eq/L and 6.9 ± 0.5 ^a,b µmol H2O2 eq/L | HeLa Selectivity Index (SI) (HeLa cells [4]; SI = IC50 (HEK 293)/IC50 (HeLa)): 2 | LDH (HeLa cells [5]): 27.3 ± 2.5 µU/mL and 27.3 ± 2.5 ^a,b µU/mL | TOS (HeLa cells [6]): 7.8 ± 0.6 µmol H2O2 eq/L and 7.8 ± 0.6 ^a,b µmol H2O2 eq/L | cells in G0/G1 phase (MCF-7 cells [7]): 66.1 ± 1.9% | cells in G2/M phase (MCF-7 cells [7]): 14.9 ± 1.3% | cells in S phase (MCF-7 cells [7]): 19.0 ± 1.4% | A549 Selectivity Index (SI) (A549 cells; SI = IC50 (HEK 293)/IC50 (A549)): 2.04 | MCF-7 Selectivity Index (SI) (MCF-7 cells [8]; SI = IC50 (HEK 293)/IC50 (MCF-7)): 2.21 | LDH (MCF-7 cells [9]): 22.7 ± 1.8 µU/mL and 22.7 ± 1.8 ^a,b µU/mL
